Experimental data reported in US20220347085A1, “REPELLENT COMPOSITION AND USES” (Université Bourgogne, priority 2019, published 2022).

Key:
Assay type in all cases: in vivo
[1] = test system: Drosophila suzukii; experiment: Courtship of male Drosophila suzukii towards females, olfactory exposure; details: compared with solvent alone, 10 min observation
Method: Drosophilae (Drosophila melanogaster) aged from 3 to 9 days are used for the courtship tests according to the method described above.
Naive males were isolated in tubes, individually, upon emerging from their puparium.
The females were selected to be virgin and were stored in tubes of 10 individuals. These tubes were placed in an inclined manner in incubators, for which a temperature of 25° C. was kept constant. A 12 hour-12 hour day/night cycle was applied. The courtship tests were carried out in the morning, between 1 and 3 hours after the start of the day cycle.
At the time of the test, a 6 mm disk of filter paper (Whatman, filter paper 42) was deposited per alveolus of the device for studying the courtship behavior. Each alveolus was cylindrical, transparent and closed, and of a volume of 1.52 or 0.9 cm^3. FIG. 16 is a schematic representation of an alveolus of the device used.
The paper was then soaked in 10 μl of a composition of 0.1%, 0.5% or 1% propionic acid, or 0.1%, 0.5% or 1% butyric acid, or a mixture comprising 0.1% propionic acid and 0.1% butyric acid, 0.25% propionic acid and 0.25% butyric acid or 0.5% propionic acid and 0.5% butyric acid. A gauze (netting) makes it possible to physically isolate the drosophilae from the odor. 6 pairs (one per alveolus) were observed independently. Each pair was made up of one male and one intact female, each originating from the tubes mentioned above.
The behavior was filmed for 10 minutes, under white light, using a Sony HDR-XR550 camera. Each film was recorded and then analyzed. For each concentration of the compositions used, the number of pairs of flies was, respectively, 33, 39, 27, 38, 33, 27, 12, 6 and 12.
A negative control was carried out comprising only the solvent, i.e. paraffin oil, in order to verify the absence of an effect of the solvent on the flies.
A courtship percentage was calculated, and represents the time during which the male courts the female during the 10 minutes of observation (recording). The courtship of the Drosophila suzukii is decomposed into recognizable stereotypical events, and described precisely in scientific literature (Revadi S et al., Insects 2015 [4]). Statistical tests, i.e. a Kruskal-Wallis test followed by a post-hoc Dunn's Multiple Comparison Test, were carried out (GraphFad, Prism6) in order to evaluate the influence, on the behavior, of the composition in which the paper is soaked; this involving a release of volatile compounds and an odor perceived by the drosophilae.

[2] = test system: Drosophila melanogaster; experiment: Courtship of male Drosophila melanogaster towards females, olfactory exposure
Method: 1.1. Drosophila melanogaster
Drosophilae (Drosophila melanogaster) aged from 3 to 9 days are used for the courtship tests as described Grosjean et al. Nat. Neurosci. 2008 [1] and Grosjean et al. Nature 2011 [2].
Naive males were isolated in tubes, individually, upon emerging from their puparium. The females were selected to be virgin and were stored in tubes of 10 individuals. These tubes were placed in incubators, for which a temperature of 25° C. was kept constant. A 12 hour/12 hour day/night cycle was applied. The courtship tests were carried out in the morning, between 1 and 3 hours after the start of the day cycle.
These tests were conducted in devices made up of 6 cylindrical, transparent, and closed alveolae (see FIG. 15) of a volume of […]. A disk of filter paper (Whatman, filter paper 42) of 6 mm in diameter is deposited on the base thereof. Said paper is soaked in 10 μl of a composition comprising propionic acid and/or butyric acid diluted in paraffin oil (solvent). The different compositions used comprised, respectively, 0.5% or 1% propionic acid, 0.5% or 1% butyric acid. For each concentration, the number of pairs of flies tested was, respectively, 23, 23, 19 and 19. At the time of the test, 1 pair per alveolus was introduced into the behavior device (i.e. 6 pairs). Said pair was made up of one male and one female, each originating from the tubes mentioned above. The drosophilae were physically isolated from the odor source (said paper) by a netting which prevents any direct contact, the female had been decapitated but remained alive. In addition, the device was illuminated by red light (red far from the wavelength of between 625 and 630 nm) so as to eliminate any behavior associated with the visual perception which, in D. melanogaster, is between 300 and 550 nm)). Thus, the behavior observed depends only on the olfactory perception by the male of the compound introduced into the device at the time of the assembly thereof.
The behavior was filmed for 10 minutes, using a Sony HDR-XR550 camera. Each film was recorded and kept for subsequent analysis.
A proportion of courtship, expressed as a percentage, was then calculated, and represents the time during which the male courts the female during the 10 minutes of recording the test. The courtship of the Drosophila melanogaster is decomposed into recognizable stereotypical events, and described precisely in scientific literature (Greenspan & Ferveur, Annu. Rev. Genet, 2000 [3]). A statistical test (Mann-Whitney test (nonparametric test, GraphPad, Prism8)) was carried out in order to evaluate the influence, on the behavior, of the composition in which the paper is soaked; this involving a release of volatile compounds and an odor perceived by the drosophilae. […]

[3] = test system: Drosophila suzukii; experiment: Anesthesia test, Drosophila suzukii; details: 2% in paraffin oil
Method: (§1) The devices used were similar to the devices for studying the courtship (example 1 above), except for the volume of the space into which the files were introduced, which was 45.24 or 22.62 cm^3. 9 discs of filter paper (Whatman, filter paper 42), each soaked in 10 μl of a composition comprising butyric acid and/or propionic acid and/or a derivative of propionic acid diluted in paraffin oil were deposited in the device. The different compositions used comprised, respectively, 2% propionic acid or 2% butyric acid or 5% ethyl propanoate or 10% ethyl propanoate or 30% ethyl propanoate. For each composition, the number of flies was, respectively, 30 and 24 males, 30 and 11 females for Drosophila melanogaster, and 24, 16 and 4 males, 28, 26, 6, 5 and 4 females for Drosophila suzukii. In order to avoid any contact of the flies with the soaked disks of paper, a gauze (netting) was arranged above said papers. The drosophilae could move freely on said gauze. The quantity of compound, butyric acid or propionic acid, or of ethyl propanoate (odor) volatilized in the behavior chamber was equivalent to that of the device used for the courtship. Likewise, the flies were never in direct contact with the composition (no taste perception), only with the volatile particles (olfactory perception). The flies tested were introduced simultaneously, by group, into the enclosure. Their behavior was filed for 10 minutes, and a time required for leading to anesthesia was calculated over this period, depending on the concentration of butyric acid or propionic acid or ethyl propanoate used. The flies were considered anesthetized when they stopped moving and fell on their side.

[4] = test system: Drosophila melanogaster; experiment: Anesthesia test, Drosophila melanogaster; details: 2% in paraffin oil
Method: as §1

[5] = 1% in paraffin oil, compared with solvent alone, red light, decapitated female

Structure (SMILES): CCCC(=O)O [butyric acid]
- proportion of courtship of males towards females ([1]; 0.5% (v/v) in paraffin oil): significantly reduced
- proportion of courtship of males towards females ([1]; 1% (v/v) in paraffin oil): significantly reduced
- proportion of courtship of males towards females ([2]; 0.5% in paraffin oil, compared with solvent alone): significantly reduced
- proportion of courtship of males towards females [2, 5]: significantly reduced
- time elapsed leading to anesthesia ([3]; female flies (FIG. 17)): approximately 5 minutes
- time elapsed leading to anesthesia ([3]; male flies and female flies): approximately 5 minutes
- time elapsed leading to anesthesia ([4]; female flies): approximately 17 minutes
- time elapsed leading to anesthesia ([4]; male flies): approximately 5 minutes

Structure (SMILES): CCC(=O)O [propionic acid]
- proportion of courtship of males towards females ([1]; 0.5% (v/v) in paraffin oil): significantly reduced
- proportion of courtship of males towards females ([1]; 1% (v/v) in paraffin oil): significantly reduced
- proportion of courtship of males towards females [2, 5]: significantly changed
- proportion of courtship of males towards females ([2]; 1% in solvent, compared with 0.5% in solvent): significantly reduced
- time elapsed leading to anesthesia ([3]; female flies (FIG. 17)): approximately 4 minutes
- time elapsed leading to anesthesia ([3]; male flies and female flies): approximately 4 minutes
- time elapsed leading to anesthesia ([4]; female flies): approximately 5 minutes
- time elapsed leading to anesthesia ([4]; male flies): approximately 3 minutes
